Earlier results in patent US20110207832A1, “SKIN DISINFECTANT COMPOSITION AND METHODS FOR MANUFACTURING AND USING” (Skinvisible Pharmaceuticals, Inc., priority 2010, published 2011).

What was measured:
[1] = in vivo

In the case of “Poly(vinylpyrrolidone/1-eicosene) [PVPE]”, the dermal toxicity [1] is listed as “no demonstrable dermal toxicity”.

For “Poly(vinylpyrrolidone/1-hexadecene) [PVPH]”, the dermal toxicity [1] is listed as “no demonstrable dermal toxicity”.

In the case of `[H]/N=C(\N/C(=N/[H])NCCCCCCNC(=N)NC(=N)Nc1ccc(Cl)cc1)Nc1ccc(Cl)cc1` [chlorhexidine, 1,6-di(4-chlorophenyl-diguanido) hexane], the “water solubility (in words)” value is listed as “practically insoluble in water”.
